Reference: ChEMBL document CHEMBL1154198, “Chemical genetics of Plasmodium falciparum” (Nature, 2010)

Experiments:
[1] = tested on: Plasmodium falciparum; assay: ST_JUDE: Plasmodium falciparum 3D7 EC50 (uM) as measured by SYBR green dye; type: functional, organism-based
[2] = tested on: Plasmodium falciparum; assay: ST_JUDE: Plasmodium falciparum K1 EC50 (uM) as measured by SYBR green dye; type: functional, organism-based

SMILES	EC50 [1] [nM]	EC50 [2] [µM]
COc1ccc(Cl)c2sc(N(Cc3cccnc3)C(=O)c3ccc(S(C)(=O)=O)cc3)nc12	> 15000	> 15
Cc1ccc(/C=C2\C(=O)NC(=O)N(c3ccc(Br)cc3)C2=O)cc1[N+](=O)[O-]	4470	5.16
CCCC(=O)NC(c1ccc(OC)cc1)c1ccc2cccnc2c1O (configuration not stated)	1650	2.65
O=C(c1cccc(Cl)c1)N(Cc1cccnc1)c1nc2c(F)cccc2s1	> 15000	6.68
CCC(=O)Oc1cccc2ccc(/C=C/c3cc4c(cc3Cl)OCO4)nc12	> 15000	> 15
CC(=O)N(C1=C(N2CCOCC2)C(=O)c2ccccc2C1=O)c1ccc(C(=O)O)cc1	> 15000	2.64
CC(=O)N1N=C2C3CCN(CC3)C2C1c1ccc(Br)cc1 (configuration not stated)	> 15000	> 15
CC(=O)N(C1=C(N2CCCCC2)C(=O)c2ccccc2C1=O)c1ccc(F)cc1	2720	3.89
COc1ccc(C)cc1S(=O)(=O)Nc1ccc(Nc2nc(C)cc(N3CCCC3)n2)cc1	759	> 15
CCSCCN1C(=O)CSC1c1cnccc1-c1ccc(Br)cc1 (configuration not stated)	4910	> 15
CCOc1cc(CN(C)Cc2nnc(SCc3ccccc3C)n2CC2CCCO2)ccc1OC (configuration not stated)	2290	2.42
CCc1ccc(Oc2c(C(F)(F)F)oc3c(CN4CCOCC4)c(O)ccc3c2=O)cc1	> 15000	> 15
COc1ccc(C2C(C(=O)Nc3cc(C)ccc3OC)c3ccccc3C(=O)N2C)cc1 (configuration not stated)	2100	3.73
CCCOCc1cc(CN2CCN(c3cccc(Cl)c3)CC2)c(O)c2ncccc12	1100	0.896
O=C(CC1N=C2c3ccccc3N=C(SCc3cccc(F)c3)N2C1=O)NCc1ccco1 (configuration not stated)	2310	2.01
C=CC[n+]1c(C=C2C=CC=CN2C)sc2ccccc21	1520	0.879
COc1ccc2nc(C)cc(Nc3ccc(N4CCOCC4)cc3)c2c1	4690	> 15
CC(C)c1ccc(Nc2c(-c3ccccn3)nc3ccccn23)cc1	> 15000	> 15
CCc1n(CC(O)COc2ccccc2OC)c2ccccc2[n+]1CC (configuration not stated)	> 15000	> 15
CC[N+](C)(CC)CCCOc1ccc2c(c1)C(=O)c1cc(OCCC[N+](C)(CC)CC)ccc1-2	655	0.413
CCc1c(C)c2cc3c(c(C)c2oc1=O)OCN(CCc1ccccc1OC)C3	757	0.223
CCc1ccc(C(Nc2ccccn2)c2cc(Cl)c3cccnc3c2O)cc1 (configuration not stated)	4410	> 15

SMILES	EC50 [1] [nM]	EC50 [2] [µM]
CC(Sc1ccc(Cl)cc1)C(=O)Nc1ccc(Br)cc1F (configuration not stated)	> 15000	> 15
CCCN(CCC)CCCNC(=S)Nc1ccc2nc(N3CCN(C)CC3)cc(C)c2c1	3400	5.25
Cc1cccc(NC(=O)Nc2ccc(S(=O)(=O)C(F)(F)F)cc2)c1C	1320	1.22
CCCN1CCC(NC(=S)Nc2ccc([N+](=O)[O-])cc2)CC1	> 15000	> 15
CCCCN(C)CCNC(=O)c1cc2c(-c3ccccc3F)nn(C)c2s1	1620	> 15
CCCCOCCCN1C(=O)CSC1c1cnccc1-c1ccc(Br)cc1 (configuration not stated)	2380	1.76
COC(CNC(=O)c1ccc(-n2c(C)cc3c2CCCC3)cc1)OC	> 15000	> 15
Cc1ccc2ccc(C(Nc3ccccn3)c3cccc(Cl)c3)c(O)c2n1 (configuration not stated)	4130	3.66
O=C(CN1C2=NCCN2c2ccccc21)c1ccc(Cl)cc1Cl	3280	3.65
CN1CCN(c2nc(Nc3cccc(Cl)c3)c3cnn(-c4ccccc4)c3n2)CC1	3880	4.58
CCCOc1ccc(-c2nonc2NC(=O)c2cccc(C)c2)cc1OCCC	> 15000	1.05
O=C(Cc1ccc(Br)cc1)OCC(=O)c1ccc(F)cc1	> 15000	> 15
CCC(C)c1ccc(O)c(NC(=O)c2cncc(Br)c2)c1 (configuration not stated)	2150	1.59
O=C(NC(c1ccc([N+](=O)[O-])cc1)c1cc(Cl)c2cccnc2c1O)c1cccnc1 (configuration not stated)	2510	1.52
O=C1C(Nc2ccc(I)cc2)=C(N2CCCCC2)C(=O)c2ccccc21	153	0.395
CCOCCn1c(CN(Cc2ccccc2)Cc2ccccc2)nc2c1c(=O)n(C)c(=O)n2C	> 15000	> 15
COc1ccccc1C(=O)N(Cc1cccnc1)c1nc2c(Cl)cccc2s1	> 15000	6.66
CCCCOc1ccc(S(=O)(=O)Nc2ccc(Nc3nc(C)cc(N4CCCC4)n3)cc2)cc1	1410	> 15
CCCN1C(=O)c2[nH]nc(-c3c(C)cc(C)cc3O)c2C1c1ccc(OC)c(OC)c1 (configuration not stated)	> 15000	> 15
C[n+]1ccccc1-c1nc2ccccc2s1	> 15000	5.81
COc1cc2c(cc1OC)C(C(=O)Nc1ccc(C(C)C)cc1)C(c1cccs1)N(C)C2=O (configuration not stated)	> 15000	3.45
CCOC(=O)c1c(CSC(=N)N)n(-c2ccccc2)c2cc(Br)c(OC(C)=O)cc12	749	2.9

SMILES	EC50 [1] [nM]	EC50 [2] [µM]
Cc1ccccc1NC(=O)Nc1ccnn1C1CCN(Cc2ccc(OC(C)C)cc2)CC1	6740	> 15
Cc1ccc(NC2=NC(=O)CC(C(=O)Nc3ccc(C(C)C)cc3)S2)cc1C (configuration not stated)	> 15000	> 15
CN(C)c1ccc(/C=C/c2cc(/C=C/c3ccc(N(C)C)cc3)n3n[n+](C)nc3n2)cc1.[O-][Cl+3]([O-])([O-])[O-]	642	0.514
Cc1cccc(C2CC(=O)NC3=C2C(=O)CC(c2ccccc2Cl)C3)c1 (configuration not stated)	> 15000	4.42
CCc1c(C)c2cc3c(c(C)c2oc1=O)OCN(CCc1ccc(OC)cc1)C3	> 15000	0.514
CC(=O)N1CCc2c(sc(NC(=O)c3ccc(C)c(C)c3)c2C(N)=O)C1	> 15000	> 15
O=C(/C=C/c1ccco1)Nc1ccc(C(F)(F)F)cc1	> 15000	> 15
Cc1ccc(OCC(=O)Nc2cc(C)nn2-c2nc(C)cc(O)n2)cc1	> 15000	> 15
CCCCOc1ccc(NC2=C(N3CCCCC3)C(=O)c3ccccc3C2=O)cc1	14.5	0.0135
COc1cc(/C=C(\C#N)c2nc3ccccc3[nH]2)cc(Br)c1OCC#N	> 15000	> 15
Cc1n(CC(O)COc2cccc(Cl)c2)c2ccccc2[n+]1C (configuration not stated)	> 15000	> 15
COc1cc(NC(=O)N2CCn3cccc3C2c2ccc(F)cc2)cc(OC)c1OC (configuration not stated)	4150	3.75
O=C1C(Nc2ccc(I)cc2)=C(N2CCOCC2)C(=O)c2ccccc21	256	0.181
CCC1(C)CC(CCNCc2ccc(F)cc2)(c2ccc(F)cc2)CCO1 (configuration not stated)	1140	0.518
CC(C)(C)c1ccc(C(=O)Nc2c3c(nn2-c2ccc([N+](=O)[O-])cc2)CS(=O)(=O)C3)cc1	10600	3.09
C/C(=N/NC(N)=S)C1C(=O)c2ccccc2C1=O	> 15000	> 15
Nc1nc(Nc2ccc(Cl)c(Cl)c2)nc2ccccc12	2220	> 15
O=C(Nc1cccc(Br)c1)C1(c2ccccc2)CC1(Cl)Cl (configuration not stated)	4430	3.11
Cc1ccc2nc3c(cc(C(=O)NC(C)c4ccccc4)c(=N)n3CC3CCCO3)c(=O)n2c1 (configuration not stated)	> 15000	> 15
CCOc1cc(C2CC(=O)NC3=C2C(=O)CC(c2ccc(OC)cc2)C3)cc(Br)c1O (configuration not stated)	1130	1.53
CCCc1cc(O)nc(-n2nc(C)cc2NC(=O)c2ccc(Cl)cc2)n1	> 15000	> 15
CCOC(=O)c1ccc(NC(=O)c2cc([N+](=O)[O-])ccc2NC(=O)CNC2CCN(Cc3ccccc3)CC2)cc1	1270	3.68

SMILES	EC50 [1] [nM]	EC50 [2] [µM]
Cc1sc(NC(=O)CSc2ccc(Cl)cc2)nc1-c1ccccc1	> 15000	> 15
CC1CCN(Cc2c(O)ccc3ccccc23)CC1	368	0.492
Cc1ccnc(NC(c2ccc(Cl)cc2Cl)c2ccc3cccnc3c2O)c1 (configuration not stated)	1560	1.44
CC[n+]1ccccc1/C=C1\Sc2ccc(C)cc2N1C	572	0.453
O=[N+]([O-])c1ccc(O)c(/N=C/C=C(\O)c2ccc(Cl)c(Cl)c2)c1	> 15000	1.65
COc1cc(CNc2cccc(Cl)c2)cc(I)c1OC	3960	4.1
COc1ccc(/C=C(\C#N)c2nn(CCO)c(N)c2C#N)cc1	> 15000	> 15
O=C(c1cccc(F)c1)N(Cc1cccnc1)c1nc2ccc(F)cc2s1	> 15000	4.23
OCCN1CCN(c2nc(Nc3ccc(F)cc3)c3cnn(-c4ccccc4)c3n2)CC1	1210	1.38
CCOc1ccc(-c2nonc2NC(=O)CC(C)C)cc1OCC	3140	3.78
OCCNc1nc(Nc2ccc(Br)cc2)nc2ccccc12	829	1.7
Cc1ccc(NC(=O)Cn2c(C)c(C=O)c3ccccc32)cc1Cl	> 15000	4.63
COc1ccc(C2C(C#N)=C(N)Oc3c2ccc2ccccc32)cc1OC (configuration not stated)	1450	8.61
O=C1c2ccccc2C(=O)c2cc(S(=O)(=O)N(CCO)CCO)ccc21	5890	3.21
O=C(C1CCCCC1)N(Cc1cccnc1)c1nc2c(Cl)cccc2s1	2360	2.33
CCN1/C(=C/c2cccc[n+]2C)Sc2ccc(C)cc21	738	0.436
CCc1ccc(C2C3=C(O)CC(C)(C)CC3=Nc3cc(OC)c(OC)c(OC)c32)cc1 (configuration not stated)	> 15000	4.85
CC(C)(C)c1ccc(C(=O)Nc2cccc(NC(=O)c3cccs3)c2)cc1	> 15000	> 15
CCCCCCn1c(N)c(C(=O)OC)c2nc3ccccc3nc21	> 15000	> 15
CCCCCN1COc2ccc3c4c(c(=O)oc3c2C1)CCCC4	1690	0.822
